Values joined by “and” are separate entries in the source; they are usually repeats but may differ in a detail not shown here. Identical values can stand only once.
Legend:
[1] = test system: tumors; settings: 24 hours after dye administration by injection; prior art; cited from earlier work
[2] = Gastric gavage of dye to mice; organ fluorescence (liver, spleen, heart, lungs, kidneys, brain) by fluorescent camera; assay type: in vivo; settings: 5 hours later
Description: 4 μg of IR-783 dissolved in 200 μl PBS were introduced into mice stomach by gastric gavage. Five hours later, the mice were sacrificed and liver, spleen, heart, lungs, kidneys and brain were collected and measured for fluorescence by a fluorescent camera setup. […] Grey levels of the organs are indicated by the numbers on the fluorescent pictures next to the imaged organs, e.g., grey level in the liver was 4000 in two mice and 2500 in a third mouse, and grey levels in the kidneys were 3500, 200 and 1200, respectively.

[3] = test system: human colorectal tumors; assay: Luminal (rectal, minicolonoscope) administration of dye to orthotopic mice; fluorescence of tumor and surrounding colon tissue by fluorescent camera, with histopathology; assay type: in vivo, mouse; settings: for fluorescent labeling of tumor exposed to the colon lumen: tumor confirmed by histopathology
Description: Orthotopic mice with human colorectal tumors in their colons were used for […] administration of the IR-783 derivative—IR-783-S-PH-COOH. 4 μg of the IR-783-S-PH-COOH dissolved in 200 μl PBS were introduced into the colon of the mouse via minicolonoscope inserted through the rectum. The IR-783-S-PH-COOH solution was incubated in the colon for 20 minutes and then washed out with 5 ml PBS inserted through the rectum. Four hours later, mice were sacrificed and the fluorescence of the tumor and the surrounding colon tissue was measured by a fluorescent camera setup. Histopathological examination was performed on paraffin fixed colonic tissue specimens.
Orthotopic mice with human colorectal tumors in their colons were used for luminal administration of IR-783. 4 μg of IR-783 dissolved in 200 μl PBS were introduced into the colon of the mouse via a minicolonoscope inserted through the rectum. The IR-783 solution was incubated in the colon for 20 minutes and then washed out with 5 ml of PBS. 4 h later, the mice were sacrificed and the fluorescence of the tumor and the surrounding colon was measured by a fluorescent camera setup. Histopathological examination was performed on paraffin fixed colonic tissue specimens.

[4] = 4 μg in 200 μl PBS by gastric gavage, individual mice
[5] = 4 μg in 200 μl PBS into colon, 20 min incubation, 4 h later

organs in which fluorescence was detected ([2]; 4 μg by gastric gavage, liver, spleen, heart, lungs, kidneys, brain examined)	grey level in the liver [2, 4]	grey levels in the kidneys [2, 4]	Compound	dye concentration in tumors compared to normal body tissue [1]	fluorescent labeling of tumor exposed to the colon lumen [3, 5]	fluorescent labeling of tumors developed below the murine mucosal layer (not exposed to colon lumen) ([3]; 4 μg into colon, 20 min incubation, 4 h later, FIG. 6B)	tumor to background ratio ([3]; 4 μg in 200 μl PBS into colon, 20 min incubation, washed out, measured 4 h later, 1 second exposure, histopathologically confirmed tumor)	fluorescent labeling of non-cancerous lymphatic tissue region ([3]; 4 μg into colon, 4 h later, suspected region with no tumor cells)
detected in the liver and kidneys	4000 and 2500	3500 and 200 and 1200	CC1(C)C(=CC=C2CCCC(C=CC3=[N+](CCCCS(=O)(=O)[O-])c4ccccc4C3(C)C)=C2Cl)N(CCCCS(=O)(=O)[O-])c2ccccc21.[Na+] [IR-783]	much higher in tumors	intensely labeled	not labeled		
			IR-783-S-PH-COOH		intensely labeled		60	not labeled
